Experimental data published in patent US11622975B2, “Compositions and methods for improved honey bee health” (priority 2019, dated 2023).

Columns and labels:
[1] = tested on: European honey bees, Apis mellifera; assay: Longevity of healthy adult worker bees in cage study after MBCD treatment; type: in vivo; conditions: healthy newly emerged bees, versus control
Protocol: (§1) This example illustrates the baseline effects of the inventive composition in the absence of an exogenous stressor. Samples of European honey bees, Apis mellifera, were collected from colonies maintained in the apiaries of the USDA-ARS Bee Research Laboratory in Beltsville, Md. Frames with emerging brood were removed from colonies and individually placed in a mesh-walled cage. The cages were transferred to an insect growth chamber at 34° C. and 70% humidity. After 24 hrs incubation, newly emerged honey bees were transferred to a honey bee rearing cup, with a top-feeder design, allowing for easy sampling of honey bees (see e.g., Evans et al., 2009). A 3 mL syringe filled with 50% sugar syrup mixture was inverted over the top of the rearing cup to provision the caged honey bees. The honey bees were also provisioned with 1.5 grams of honey bee pollen supplement in patty form (e.g., Bee-Pro®, available from Mann Lake Ltd, Hackensack, Minn.), supplemented 10% (w/w) with ground fresh pollen, and placed on cotton paper on the cup cage bottoms. Syringes and sucrose solution were changed every 3 days and cotton paper was changed once per week.
Newly emerged honey bees were placed in individual cages (n=30 bees per cage & 2 replicate cages per treatment) and fed using a syringe filled with 50% sucrose alone or supplemented with either 1, 10, or 100 μg MBCD per bee/per week. […]

[2] = tested on: honey bees; assay: Cage survival study of bees fed sublethal doses of pesticides with or without MBCD; type: in vivo, Apis mellifera
Protocol: as §1
In this example, whether MBCD mitigates the toxicity of certain pesticides associated with honey bee death was investigated. Not intending to be theory-bound, it was hypothesized that the binding of hydrophobic pesticide molecules to CDs would translate into health benefits to honey bees that were exposed to such pesticides. Samples of honey bees were collected as in example 1. A cage study (n=30 bees per cage & 2 replicate cages per treatment) was performed using 50% sucrose solution that had been spiked with sublethal doses of common pesticides that are known to be toxic to honey bees to measure the ability of treatment MBCD compositions to confer protection to the honey bees. Analytical grade standards of clothianidin, imidacloprid, and chlorpyrifos (available from MilliporeSigma, St. Louis, Mo.) were first dissolved in acetone, then diluted to their final concentrations (Table 2) in 50% sugar syrup. The listed sublethal doses were derived from taking half of the previously published honey bee LD50s (referred to a “LD25” in Table 2). The solutions were administered via 3 mL syringes in rearing cups as previously stated. Fresh pesticide solutions were mixed every 3 days to coincide with syringe replacement (see e.g., Williamson et al., 2013; Li et al, 2017).
Median survival is represented for each treatment by (# days). Curves were compared using Log-Rank Mantel-Cox (p<0.0001 for clothianidin versus control, 1, or 10 μg MBCD; p<0.001 for chlorpyrifos versus control or 1 μg MBCD) and Gehan-Breslow-Wilcoxon (p<0.0001 for clothianidin versus control, 1, or 10 μg MBCD; p<0.05 for chlorpyrifos versus control or 1 μg MBCD). […] The chlorpyrifos treatment was able to reduce median lifespan on its own to 26 days compared to the 36 days of the control (FIG. 2C). While a dosage of 10 μg/bee MBCD did increase median lifespan to 30 days, there was not a significant change in median lifespan.

[3] = tested on: glutathione-S-transferase S1 (GSTS1); assay: Transcript levels of honey bee detoxification gene (RT-qPCR); type: in vivo, Apis mellifera; conditions: clothianidin plus 10 μg/bee MBCD versus pesticide only, after 3 days of feeding
Protocol: Bees receiving clothianidin were compared to bees receiving the pesticide with the addition of 1 μg or 10 μg/bee MBCD after 3 days of feeding. One-way ANOVA with Tukey multiple comparisons was performed to determine any statistical significance (p<0.05 for Clothianidin versus Clothianidin+10 μg/bee MBCD). The “*” denotes the sample chosen as the 2^−ΔΔCT calibrator. […] Pesticides removed from the immediate environment results in less energy dedicated to detoxification and excretion.
(§2) The presence of DWV and Varroa destructor was determined as follows. Total RNA was extracted from whole body 12 individual honey bees using the TRIzol Reagent® (available from Thermo Fisher Scientific, Waltham, Mass.) by manufacturers specifications, and stored at −80° C. […] Transcript levels (RT-qPCR analysis) were quantified using the Brilliant III Ultra-Fast SYBR Green® QPCR Master Mix (Agilent Technologies, Inc., Santa Clara, Calif.) on a CFX384 Touch Real Time PCR Detection System (Bio-Rad Laboratories, Inc., Hercules, Calif.). […] For the detection and quantification of negative stranded bee viruses, replication intermediates, TAG-DWV primers were substituted for random primers or oligos (see e.g., Boncristiani et al., 2009). The fold difference in viral concentration among different treatment groups was determined using the comparative Ct method (2^−ΔΔCT method) (see e.g., Livak & Schmittgen, 2001). […]

[4] = tested on: Deformed wing virus (DWV); assay: Viral load (RT-qPCR) in virus-infected honey bees after MBCD treatment; type: in vivo, Apis mellifera; conditions: for decrease in DWV (+) sense viral genome / decrease in DWV (−) sense replicative strand: 10 μg/bee MBCD; for decrease in DWV (+) sense viral genome: versus untreated infected bees
Protocol: The presence of DWV and Varroa destructor was determined as follows. Total RNA was extracted from whole body 12 individual honey bees using the TRIzol Reagent® (available from Thermo Fisher Scientific, Waltham, Mass.) by manufacturers specifications, and stored at −80° C. First-strand cDNA was synthesized using the Superscript III Reverse Transcriptase (available in a kit from Thermo Fisher Scientific). Briefly, each reaction contained: 3 μl total bee RNA (˜1 μg/μl), 1 μl of 10 mM dNTPs, 1 μl random primers (0.15 μg/μl), 1 μL of Oligo(dT), 1 μl of 0.1 M DTT (0.1 M), 4 μl 5×First-Strand Buffer, 1 uL of 200 U/μL RnaseOUT, 1 μl of 200 U/μl SuperScript III Reverse Transcriptase, and 7 μl Nuclease-free water. The reaction mixture was incubated at 25° C. for 5 min, 55° C. for 2 hrs, and 70° C. for 15 min, then stored at −20° C. until use. Transcript levels (RT-qPCR analysis) were quantified using the Brilliant III Ultra-Fast SYBR Green® QPCR Master Mix (Agilent Technologies, Inc., Santa Clara, Calif.) on a CFX384 Touch Real Time PCR Detection System (Bio-Rad Laboratories, Inc., Hercules, Calif.). Samples were incubated at 95° C. for 5 min, followed by 40 cycles of 95° C. for 20 s, 59° C. for 20 s, and 72° C. for 20 s. Thereafter, a melt curve analysis from 65° C. to 95° C. was performed to confirm product specificity. For the detection and quantification of negative stranded bee viruses, replication intermediates, TAG-DWV primers were substituted for random primers or oligos (see e.g., Boncristiani et al., 2009). The fold difference in viral concentration among different treatment groups was determined using the comparative Ct method (2^−ΔΔCT method) (see e.g., Livak & Schmittgen, 2001). Calibrators were chosen as the highest average treatment ΔCt value for each experiment.
Emerging bees that had non-deformed wings (i.e., asymptomatic) were selected for a cage study (n=30 bees per cage & 6 replicate cages per treatment). […] Virally infected untreated bees were compared to bees fed 10 μg/bee MBCD in 50% sucrose solution. In FIG. 6A, DWV (+) sense viral genome titers were compared 3 and 6 days after treatment. An unpaired, 2-tailed Student's T-Test was performed to determine statistical significance (p<0.05 at 3 days feeding; N.S.=Non-significant 6 days after treatment). In FIG. 6B, DWV (−) sense replicative strand titers were compared 3 and 6 days after treatment. An unpaired, 2-tailed Student's T-Test was performed to determine statistical significance (p<0.0001 for 3 days post treatments; p=0.049 for 6 days post treatment). The “★” denotes the sample chosen as the 2^−ΔΔCT calibrator and bars denote standard error.

[5] = tested on: honey bees infected with Deformed wing virus; assay: Survival of virus-infected honey bees after MBCD treatment; type: in vivo, Apis mellifera; conditions: 10 μg/bee MBCD in 50% sucrose, untreated 6 days
Protocol: as §2, with “C. First-strand cDNA was synthesized using the Superscript III Reverse Transcriptase (available in a kit from Thermo Fisher Scientific).” for “C.”
Untreated bees fed only 50% sucrose were compared to bees receiving 10 μg/bee MBCD in 50% sucrose (FIG. 7). […] Bees were measured 3 (FIG. 8A) and 6 (FIG. 8B) days post feeding. […]

[6] = tested on: honey bees infected with Deformed wing virus; assay: Weight of virus-infected honey bees after MBCD treatment; type: in vivo, Apis mellifera; conditions: 10 μg/bee MBCD
Protocol: Untreated bees fed only 50% sucrose were compared to bees receiving 10 μg/bee MBCD in 50% sucrose (FIG. 7). Median survival was represented for each treatment by (# days). Curves were compared using Log-Rank Mantel-Cox (p<0.001) and Gehan-Breslow-Wilcoxon (p<0.01). […] The mass ([…]) of control bees was compared to bees fed 10 μg/bee MBCD. Bees were measured 3 (FIG. 8A) and 6 (FIG. 8B) days post feeding. With average bee weight higher along with more bees present, the amount of work accomplished in the hive as a whole would be expected to increase. An unpaired, 2-tailed Student's T-Test was performed to determine statistical significance (p<0.05 at 3 days) and bars denote standard error.

[7] = tested on: honey bee; conditions: half of previously published honey bee LD50; used as dose in the cage study; cited from earlier work
[8] = tested on: honey bee colonies; assay: Overwintering field trial of honey bee colonies treated with HPBCD and acaricide; type: in vivo; conditions: for colony (hive) loss: fed October to December, surviving hives counted in March, 10 colonies per treatment, no treatment about 50%; for total frames containing bees: measured in March after overwintering, no treatment 50 frames
Protocol: This example illustrates the use of HPBCD in a field setting. Four treatments with 10 colonies per treatment were performed as follows: (i) No HPBCD and no acaricide (No Treatment control), (ii) acaricide alone (Amitraz), (iii) HPBCD, and (iv) a combination of Amitraz and HPBCD. Colonies were fed treatments using a top box feeder in a “Langstroth Hive” from October to December, then surviving hives were counted in March of the following year and numbers of Langstroth frames containing bees were measured. About 50% of the colonies that received no treatment were lost; while it is a high level of loss it was within the expected range for hives that received no extra management besides sugar syrup supplementation (which agrees with the national average for untreated colonies). The group receiving only Amitraz, the current industry standard for mite control, lost about 20% of the colonies. HPBCD on its own was able to reduce hive loss to about 30%. […] Not intending to be bound by theory, one possible explanation for this profound effect is that Amitraz was lethal to mites based on contact (LC50), while the possible sub lethal and chronic affects for the honey bee were dosage based (LD50) as evidenced by slower behavioral response time (see e.g., De Mattos, 2017). It is likely the bees ingest the HPBCD and the Amitraz was sequestered rendering its effects on the bee diminished, while the groups that received no HPBCD were still susceptible to the effects of the acaricide.

[9] = tested on: honey bees; assay: MBCD and HPBCD alpha-tocopherol inclusion complex treatment of clothianidin-exposed bees, survival; type: in vivo, Apis mellifera; conditions: clothianidin treatment alone, n=280 bees/treatment
Protocol: MBCD & HPBCD alpha-tocopherol inclusion complexes were formulated using 2.33 μL of +-(α)-tocopherol (1,000 I.U., available from MilliporeSigma, St. Louis, Mo.) added to 1 g of MBCD or HPBCD to arrive at a concentration of approximately 20 I.U. of tocopherol/bee/day and 10 μg (or other indicted dosage) of BCD/bee/day. The resulting powder can be stored at −20° C. or immediately dissolved into 4.166 L of water containing 50% sucrose. The resulting solution is stable and stored at 4° C. until further use. The comparative effects of MBCD versus HPBCD treated bees are shown for lab-controlled environment (n=280 bees/treatment).

[10] = bees fed pesticide alone at sublethal dose in 50% sucrose, control 36 days

methyl-β-cyclodextrin [MBCD]
increase in median lifespan ([1]; 1 μg MBCD per bee/per week in 50% sucrose): 9 days | increase in median lifespan ([1]; 10 μg MBCD per bee/per week in 50% sucrose): 6.5 days | median lifespan ([2]; chlorpyrifos plus 1 μg/bee MBCD, chlorpyrifos alone 26 days): 36.5 days | median lifespan ([2]; chlorpyrifos plus 10 μg/bee MBCD, chlorpyrifos alone 26 days): 30 days | median lifespan ([2]; clothianidin plus 1 μg/bee MBCD, clothianidin alone 13.5 days): 31 days | median lifespan ([2]; clothianidin plus 10 μg/bee MBCD, clothianidin alone 13.5 days): 40 days | median lifespan ([2]; imidacloprid plus 1 μg/bee MBCD, imidacloprid alone 32 days): 31 days | median lifespan ([2]; imidacloprid plus 10 μg/bee MBCD, imidacloprid alone 32 days): 36 days | decrease in GSTS1 transcript level [3]: 1.5 fold | decrease in DWV (+) sense viral genome ([4]; 3 days after treatment): ~2 fold | decrease in DWV (−) sense replicative strand ([4]; 3 days post treatment): approximately 3 fold | decrease in DWV (−) sense replicative strand ([4]; 6 days post treatment): ~2 fold | decrease in DWV (+) sense viral genome ([4]; 6 days post treatment): non-significant decrease | median lifespan [5]: 9 days | bee weight versus control ([6]; 3 days after feeding): significantly higher weight | bee weight versus control ([6]; 6 days after feeding): statistically comparable

CCOP(=S)(OCC)Oc1nc(Cl)c(Cl)cc1Cl [Chlorpyrifos, chlorpyrifos, reference compound]
median lifespan [2, 10]: 26 days | Sublethal LD25 [7]: 0.43 ng/bee

O=[N+]([O-])NC1=NCCN1Cc1ccc(Cl)nc1 [Imidacloprid, imidacloprid, reference compound]
median lifespan [2, 10]: 32 days | Sublethal LD25 [7]: 4.3 ng/bee

CC(O)COC[C@H]1O[C@@H]2O[C@H]3[C@H](O)[C@@H](O)[C@@H](O[C@H]4[C@H](O)[C@@H](O)[C@@H](O[C@H]5[C@H](O)[C@@H](O)[C@@H](O[C@H]6[C@H](O)[C@@H](O)[C@@H](O[C@H]7[C@H](O)[C@@H](O)[C@@H](O[C@H]8[C@H](O)[C@@H](O)[C@@H](O[C@H]1[C@H](O)[C@H]2O)O[C@@H]8COCC(C)O)O[C@@H]7COCC(C)O)O[C@@H]6COCC(C)O)O[C@@H]5COCC(C)O)O[C@@H]4COCC(C)O)O[C@@H]3COCC(C)O (stereo partly drawn) [HPBCD, hydroxypropyl-β-cyclodextrin]
colony (hive) loss [8]: about 30% | total frames containing bees [8]: 53.5 frames

Cc1ccc(/N=C/N(C)/C=N/c2ccc(C)cc2C)c(C)c1 [Amitraz, amitraz, reference compound]
colony (hive) loss [8]: about 20% | total frames containing bees [8]: 48.5 frames

CN/C(=N\[N+](=O)[O-])NCc1cnc(Cl)s1 [Clothianidin, clothianidin, reference compound]
median lifespan [2, 10]: 13.5 days | median lifespan [9]: 22 days | DWV levels ([4]; clothianidin treated bees compared to bees supplemented with 20 ppm MBCD): higher levels of DWV | Sublethal LD25 [7]: 1.0 ng/bee
